Reference: publication PMC5656322, “BAK1 is involved in AtRALF1-induced inhibition of root cell expansion” (PLoS Genetics, 2017)
Like-named read-outs stand apart in the source and are kept apart here. Blank lines part the entries; values can stand above or below the molecule they belong to. Where no end group is shown, it is not given here. acridinium ester = acridinium ester label conjugated to the N-terminus of the peptide

Key:
[1] = tested on: cytosolic Ca^2+ in Arabidopsis seedlings; assay: Ca^2+ mobilization assay (apoaequorin luminescence); assay type: in vivo, Arabidopsis thaliana; conditions: acriAtRALF1 vs unlabeled AtRALF1, apoaequorin seedlings (S17A Fig)
Description: The cytoplasmic Ca^2+ assay was performed in Arabidopsis seedlings as described previously. Changes in Ca^2+ levels were measured using an Arabidopsis line homozygous for the single insertion of a transgene encoding a cytoplasmically expressed apoaequorin protein driven by the constitutive promoter 35S [53], here denoted Wt-aeq. Wt-aeq plants were crossed with bak1-3 mutants, and T3 generation plants overexpressing apoaequorin and containing a T-DNA insertion in the BAK1 gene, named bak1-3-aeq, were selected and evaluated using semi-quantitative RT-PCR with specific primers (S1 Table). Arabidopsis seedlings were grown in plates for 4 days. A single seedling was transferred into each well of a 96-well white microplate (Thermo Labsystems) containing 200 μl of medium supplemented with […] coelenterazine cp (Biotium) and incubated in the dark at 24 °C for 16 h. Each well containing a single seedling received recombinant AtRALF1 or acridinium-labeled AtRALF1 at a final concentration of 5, 10 or 100 nM as indicated. The resulting luminescence emission was monitored using a microplate reader (Biotec ELx 800) and 20 time-points for approximately 160 s. The experiments were repeated at least three times using independent biological replicates. The data shown are from one representative experiment.

[2] = tested on: microsomal fractions from the roots of Arabidopsis; assay: Binding assay with acridinium-labeled AtRALF1, microsomal fractions; design: species or system Arabidopsis thaliana
Description: (§1) (A) Whole seedlings (5 days old) were treated for 15 min with acriAtRALF1 (acriR1), acriR1 and an excess of unlabeled AtRALF34 (R34), RALF1(9–49) [(R-9-49)], or AtRALF1 (R1), as indicated. The values are the mean ± SD of two measurements (5 seedlings each). (B) Microsomal fractions from wild-type and bak1 mutants were incubated for 15 min with acriAtRALF1 (acriR1), with acriR1 and an excess of unlabeled RALF1(9–49) [(R-9-49)], or with AtRALF1 (R1), as indicated. The values are the mean ± SD of two measurements. The proportions of labeled: unlabeled proteins are shown in parentheses. Single and triple asterisks indicate P < 0.1 and P < 0.01 (Student’s t test).
(§2) Arabidopsis seedlings were grown for 5 days on vertical plates. Roots were homogenized in extraction buffer [300 mM sucrose, 100 mM Tris-HCl pH 7.5, 25 mM EDTA, 25 mM NaF, 1 mM Na2MoO4, 1 mM PMSF and protease inhibitor cocktail (Roche), adjusted to pH 6.2], and the homogenate was spun at 2,000 x g for 10 min at 4 °C. The supernatant was recovered and centrifuged at 100,000 x g for 50 min at 4 °C to precipitate the microsomal pellet. The pellet was resuspended in the extraction buffer plus 0.5% Triton-X. Seedlings or microsomal fractions were placed in 200 μl of medium and incubated with 7 nM acridinium-labeled peptide (acriAtRALF1 or acriAtRALF34) and different concentrations of AtRALF1, AtRALF34 or RALF1(9–49) for 15–20 min at 4 °C on a shaker. After incubation, the seedlings or microsomal fractions were washed three times with the same medium. Unless indicated otherwise, five entire seedlings and approximately 10 ng of microsomal fractions were used per treatment. The resulting luminescence emissions from the acridinium were measured using a microplate reader (Biotec ELx 800) at 2 s after injecting 50 μl of a solution containing 20 mM H2O2 in 0.1 M NaOH. These experiments were repeated at least three times using independent biological replicates. Duplicates were used for each concentration or treatment. The data shown are from one representative experiment.

[3] = tested on: intact Arabidopsis seedlings; assay: Binding assay with acridinium-labeled AtRALF1, intact seedlings; design: species or system Arabidopsis thaliana; conditions: for reduction of total acriAtRALF1 binding vs wild-type: 7 nM, 4 °C
Description: as §1, §2
Supplementary file pgen.1007053.s017.pdf: S17 Fig Analyses of acridinium-labeled AtRALF1 (acriAtRALF1) and binding of acriAtRALF1 in bak1-4 and fer4 mutants. (A) The Ca^2+ mobilization assay comparing the acriAtRALF1 activity with the AtRALF1 peptide. A total of 20 time-points per treatment were measured over 160 sec and summed. The results are the means ± SD of two measurements. (B) acriAtRALF1 binding in whole seedlings and only in roots of Arabidopsis. The roots were excised just before measurements. Ctr, seedlings treated with unlabeled AtRALF1. (C) Whole seedlings (5 days old) were treated for 20 min with acriAtRALF1 (acriR1), acriR1 and an excess of unlabeled AtRALF1 (R1), as indicated. The values are the mean ± SD of three measurements (5 seedlings each). The proportions of labeled: unlabeled proteins are shown in parentheses. Triple asterisks indicates P < 0.001 (Student’s t test). (PDF) Click here for additional data file.
Supplementary file pgen.1007053.s018.pdf: S18 Fig Binding of acridinium-labeled AtRALF1 and AtRALF34 to intact Arabidopsis seedlings. (A) bak7 seedlings (5 days old) were treated for 15 min with acriAtRALF1 (acriR1), acriR1 and an excess of unlabeled AtRALF1 (R1), as indicated. (B) bak1 seedlings (5 days old) were treated for 15 min with acriAtRALF34 (acriR34), acriR34 and an excess of unlabeled AtRALF34 (R34) or AtRALF1 (R1), as indicated. The proportions of labeled: unlabeled proteins are shown in parentheses. The values are the mean ± SD of two measurements (5 seedlings each). (PDF) Click here for additional data file.

[4] = tested on: cell suspensions; conditions: ref [5]; cited from earlier work
[5] = tested on: Arabidopsis seedlings, primary root; conditions: wild-type Arabidopsis; ref [5]; cited from earlier work
Description: To better understand the role of AtRALF1 and BRs in regulating cell expansion, we exposed different mutants and transgenic Arabidopsis plants with altered BR signaling pathways to the peptide hormone AtRALF1 at concentrations that inhibit root growth. Loss-of-function mutants (bri1-301, bsk3-2 and bak1-4), gain-of-function mutants (sud1, bes1-D and bzr1-D) and two overexpressor lines (BRI OX and DWF4 OX) were used in the root growth assays in the presence or absence of 10 μM AtRALF1 (Fig 1A).

[6] = tested on: Arabidopsis seedlings, primary root; assay: Root growth inhibition assay, liquid medium, 24-well plates; assay type: in vivo, Arabidopsis thaliana; conditions: 10 μM, 2 days; bak1-1, bak1-3 and bak1-4 mutants
Description: (§3) (A) and (B) Arabidopsis seedlings (2 days old) were treated with 10 μM AtRALF1 or water (H20) for 2 days. The values are the mean ± SD of at least 25 seedlings. Triple asterisks indicate P < 0.01 (Student’s t test); ns, not significant. (C) Four-day-old seedlings were transferred to media containing different concentrations of AtRALF1, and the primary root length was measured after 8 days of treatment. The data represent the mean value ± SD of 30 seedlings. […] Representative Arabidopsis seedlings after 8 days of treatment with AtRALF1 are shown below. Seedlings were arranged on plates after the treatment for imaging. Scale bars, 1 cm. (D) Two-day-old seedlings were treated with 10 μM AtRALF1 or water for 2 days, and root cell length was measured after 2 days of treatment. Cells from the root endodermis in the differentiation zone were measured. The values are the mean ± SD of approximately 150 cells. Triple asterisks indicate P < 0.01 (Student’s t test); ns, not significant.
(§4) Aliquots of 1 ml of medium containing seeds were distributed into 24-well plates. The peptides (10 μM) were added after 2 days, and the root length was measured 2 days after treatment. To maximize root growth, the seeds were germinated in vertical plates. […] The root length was measured 8 days after treatment unless stated otherwise. Control plants were grown under identical conditions in a peptide-free medium. Quantitative data were obtained as previously described. The experiments were repeated at least 3 times using independent biological replicates with similar results. The data from one representative experiment are shown. For cell length measurements, AtRALF1 peptide (10 μM) was added after 2 days of germination, and the cell length was measured after 2 days of treatment. The cell wall was stained with a 1 mg ml^-1 propidium iodide solution (Sigma) in the dark for 15 min and washed twice with water. Cells of the endodermis of the root differentiation zone were imaged and measured using confocal microscopy (Olympus FV1000). Approximately 30 plants from each genetic background and at least 5 cells per root were measured. The wavelengths for excitation and emission were 555 and 655 nm, respectively. Image processing was completed using the Olympus FluoView software.
Arabidopsis seedlings (2-days-old) were treated with 10 μM AtRALF1 or water (H20) for 2 days. The values are the mean ± SD of at least 25 seedlings. Triple asterisks indicate P < 0.01 (Student’s t test); ns, not significant. (PDF) Click here for additional data file.
Supplementary file pgen.1007053.s002.pdf: S2 Fig Loss-of-function bak1 mutants are sensitive to the inhibitory activity of AtRALF23/34 on root growth. Arabidopsis seedlings (2-day-old) were treated with 10 μM RALF1(9–49), RALF1(I6A), AtRALF1, AtRALF23 and AtRALF34 or water (H20) for 2 days. The values are the mean ± SD of at least 20 seedlings. […] (PDF) Click here for additional data file.

[7] = tested on: Arabidopsis seedlings, primary root; assay: Root growth inhibition assay, vertical plates; assay type: in vivo, Arabidopsis thaliana; conditions: bak1 mutants, 0.1 μM, 8 days
Description: as §3
as §4, with “The experiments were repeated at least 3 times using independent biological replicates with similar results.” left out
Supplementary file pgen.1007053.s004.pdf: S4 Fig Analyses of root growth of Arabidopsis seedlings treated with AtRALF1 peptide for 8 days and evaluated daily. Four-day-old seedlings were transferred to media containing different concentrations of AtRALF1, and the primary root length was measured daily during the 8 days of treatment. Genotypes Wt, bak1-1, bak1-3 and bak1-4 are indicated on top of each series of graphics. The seedlings were treated with 0, 0.5, 1, 5 and 10 μM AtRALF1. The data represent the mean values ± SD of 30 seedlings. Double and triple asterisks indicate P < 0.05 and P <0.01, respectively (Student’s t test); ns, not significant. (PDF) Click here for additional data file.
Four-day-old seedlings were transferred to medium containing 10 μM AtRALF1, and the primary root length was measured after 8 days of treatment. The data represent the mean value ± SD of 20 seedlings. Triple asterisks indicate P < 0.01 (Student’s t test); ns, not significant. Representative Arabidopsis seedlings after 8 days of treatment with AtRALF1 are shown. The seedlings were arranged on plates after the treatment for imaging. Scale bars, 1 cm. (PDF) Click here for additional data file.
Four-day-old seedlings were transferred to medium containing 0.1 μM BAP, and the primary root length was measured after 8 days of treatment. The data represent the mean value ± SD of 10 seedlings.

nature of acriAtRALF1 binding ([2]; microsomal fractions): specific and saturable
reduction of total acriAtRALF1 binding vs wild-type ([2]; microsomal fractions of bak1 mutants, 7 nM, 4 °C): approximately 15%
Molecule: acriAtRALF1: acridinium-labeled AtRALF1; acridinium ester conjugated to the N-terminal of the peptide ({acridinium ester}-ATTKYISYQSLKRNSVPCSRRGASYYNCQNGAQANPYSRGCSKIARCRS; ends and bridges not checked)
increase in cytoplasmic Ca^2+ [1]: induced an increase in cytoplasmic Ca^2+
reduction of total acriAtRALF1 binding vs wild-type ([3]; bak1-1 seedlings, 15 min): 30%
reduction of total acriAtRALF1 binding vs wild-type ([3]; bak1-3 seedlings, 15 min): 29%
reduction of total acriAtRALF1 binding vs wild-type ([3]; bak1-4 seedlings, 15 min): 31%
reduction of total acriAtRALF1 binding, wild-type vs bak7 ([3]; bak7 mutants, 15 min): no differences in the reduction of total binding between wild-type and bak7 mutants were observed
reduction of total acriAtRALF1 binding ([3]; fer4 mutants, 20 min (S17C Fig)): approximately 48%
source of acriAtRALF1 chemiluminescent signal ([3]; whole seedlings vs only roots (S17B Fig)): the roots were the only source of the chemiluminescent signal

Molecule: AtRALF23: Arabidopsis RALF isoform (ATRRYISYGALRRNTIPCSRRGASYYNCRRGAQANPYSRGCSAITRCRRS; ends and bridges not checked; cysteine pairing not given here; UniProt Q9LUS7 89-138, looked up) [reference compound]
alkalinization of the extracellular medium [4]: alkalinizes the extracellular medium of cell suspensions
primary root growth inhibition [5]: inhibits the primary root growth of wild-type Arabidopsis plants
primary root growth inhibition [6]: inhibited the primary root growth

Molecule: c1ccc(CNc2ncnc3nc[nH]c23)cc1 [6-benzylaminopurine (BAP), 6-benzylaminopurine, reference compound]
root growth inhibition [7]: capable of inhibiting the root growth of bak1 mutants
